US20220380310A1, “P2X7R ANTAGONISTS” (priority 2019, published 2022)
Where a name gives a salt, the structure may show the parent alone.

Key:
P2X2R = molecular target: T1, P2X2R (Homo sapiens, UniProt Q9UBL9); experiment: Receptor-mediated calcium entrance assay (Calcium Assay), P2X2R; format: cell-based; settings: for remaining activity at 5 µM: compound at 5 μM, read-out: Percentage of activity remains in the presence of the compound at 5 μM, P2X2R (Calcium Assay)
T1 construct: expressed in transfected cells; host or cells: HEK-293
T1 sequence (Q9UBL9 1-471): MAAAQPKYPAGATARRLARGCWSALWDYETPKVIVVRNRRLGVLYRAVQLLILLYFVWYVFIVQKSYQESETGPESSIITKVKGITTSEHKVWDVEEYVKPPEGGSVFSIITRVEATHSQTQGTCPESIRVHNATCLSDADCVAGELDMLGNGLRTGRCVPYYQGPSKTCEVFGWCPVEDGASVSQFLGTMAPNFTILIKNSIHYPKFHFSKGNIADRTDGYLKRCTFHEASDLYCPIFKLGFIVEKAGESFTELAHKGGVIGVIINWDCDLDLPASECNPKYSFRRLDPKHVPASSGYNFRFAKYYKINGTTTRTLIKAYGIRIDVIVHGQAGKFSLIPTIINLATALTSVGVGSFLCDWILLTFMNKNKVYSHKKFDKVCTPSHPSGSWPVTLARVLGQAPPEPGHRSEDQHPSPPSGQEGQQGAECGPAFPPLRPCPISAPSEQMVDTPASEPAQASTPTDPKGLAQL

[1] = molecular target: T2, Human P2X4 receptor (P2X4R) (Homo sapiens, UniProt Q99571); experiment: Receptor-mediated calcium entrance assay (Calcium Assay), P2X4R transfected HEK-293 cells; format: cell-based; settings: HEK293, compound at 5 μM, 1 mM ATP stimulus, read-out: Percentage of activity remains in the presence of the compound at 5 μM, P2X4R (Calcium Assay)
T2 construct: expressed in transfected cells; host or cells: HEK-293
T2 sequence (Q99571 1-388): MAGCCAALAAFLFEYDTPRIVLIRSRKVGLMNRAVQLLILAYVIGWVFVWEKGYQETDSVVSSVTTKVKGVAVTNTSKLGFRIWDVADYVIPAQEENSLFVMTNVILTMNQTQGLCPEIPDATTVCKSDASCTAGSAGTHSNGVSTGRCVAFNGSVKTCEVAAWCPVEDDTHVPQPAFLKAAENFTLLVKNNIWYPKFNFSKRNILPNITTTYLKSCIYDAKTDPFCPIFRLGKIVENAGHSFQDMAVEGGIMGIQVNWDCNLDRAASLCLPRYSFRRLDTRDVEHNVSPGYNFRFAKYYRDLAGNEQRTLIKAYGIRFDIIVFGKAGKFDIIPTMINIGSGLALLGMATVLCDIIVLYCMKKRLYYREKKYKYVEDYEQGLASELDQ
From the text: Human P2X1 receptor (P2X1R) is a member of P2X family. […] Thus, the calcium assay was used. In the calcium assay, P2X receptor activation leads to opening of ion channels, which increases intracellular calcium concentration. The increased intracellular calcium concentration can be detected by a calcium indicator dye such as Fluo-4 or Fluo-8. Molecular Probes™ Fluo-4, AM (Cat. No. F14201 from Fisher Scientific) was used in the assay. The procedures were similar as described in the Yo-Pro-1 assay until day 4. The construct of P2X1R for transient transfection to HEK-293 cells was the courtesy from Dr. Richard J. Evans laboratory (J. Biol. Chem. 279:9043-9055). After transfection and expression, on day 4 cells were washed twice by Ca-HBSS (The composition (in mM) was NaCl 135, HEPES 10, D-glucose 10, KCl 5.4, CaCl2 2, and MgCl2 1, pH to 7.4 by NaOH) and incubated in dye loading solution (The solution contained 2.5 μM Fluo-4, 1 mM probenecid, and 1× PowerLoad (Cat. No. P10020 from Fisher Scientific) in Ca-HBSS) for 70 minutes at 37° C. Then the extracellular loading dye was washed away and cells were incubated at Ca-HBSS containing 1 mM probenecid for 30 minutes. Before the final steps, probenecid was washed away with Ca-HBSS. The assay was performed by adding 25 μl of Ca-HBSS followed by 25 μl of various test compounds. At this point, the base level of fluorescence was obtained through the microplate reading—the base microplate reading for this assay. At the end, the stimulus (ATP at 20 μM was the final concentration for P2X1R) was added to activate the P2X1R. Activation of P2X1R opened the channel to allow influx of calcium, which was represented by fluorescence increases that were measured by the microplate device with excitation at 475 nm and emission wavelength in the range of 500-550 nm. The data were analyzed the same way as described before: The result of each well was first normalized by its corresponding base microplate reading. Then, the negative control signal was subtracted from. In the negative control, the test compound and the stimulus were replaced by Ca-HBSS. […] An average of six highest values of the plate (AVG) were considered as 100% and the value of each well was divided by AVG and presented as the relative values in percentages.
Human P2X4 receptor (P2X4R) construct (J. Biol. Chem. 290, 7930-7942) was transiently transfected to HEK-293 cells and the calcium assay was performed as described above. When 1 mM ATP was used as stimulus, an increased receptor mediated activity leading to intracellular calcium elevation can be seen in less than 10 minutes.

Compound | remaining activity at 5 µM (P2X2R) [%] | remaining activity at 5 µM [1] [%] | Percentage of activity remains in the presence of the compound at 5 μM, P2X2R (Calcium Assay) (P2X2R) [%]
Cc1nc(N=Nc2ccc(S(=O)(=O)[O-])cc2S(=O)(=O)[O-])c(COP(=O)([O-])[O-])c(C=O)c1O.[Na+].[Na+].[Na+].[Na+] [PPADS, Pyridoxalphosphate-6-azophenyl-2′,4′-disulfonic acid tetrasodium, reference compound] |  |  | 6.2
O=S(=O)(c1ccccc1)C1CN(S(=O)(=O)c2ccc(N3CCOCC3)cc2)C1 [#11] | 52 | 59.6 | 
CC(C)S(=O)(=O)c1ccc(N2CCCC(NC(=O)CCc3ccccc3)C2)cc1 (centres unmarked) [#7] | 78.8 | 76.8 | 
O=C(CCc1ccccc1)NC1CCCN(S(=O)(=O)c2ccc(N3CCCC3)cc2)C1 (centres unmarked) [#13] | 67.4 | 88.8 | 
O=C1CCC(N2Cc3c(NC(=O)CCc4ccccc4)cccc3C2=O)C(=O)N1 (centres unmarked) [#16] | 77 | 60.7 | 
COc1ccc(S(=O)(=O)N2CCCC(NC(=O)CCc3ccccc3)C2)cc1 (centres unmarked) [#2] | 85.7 | 56.4 | 
O=C(NCCc1ccccc1)C1CCN(S(=O)(=O)c2ccc(N3CCCCC3)cc2)CC1 [#20] | 68.1 | 50.6 | 
O=C(CCc1ccccc1)NC1CCCN(S(=O)(=O)c2ccc(N3CCOCC3)cc2)C1 (centres unmarked) [#12] | 64.8 | 69.1 | 
O=C(CCc1ccccc1)NC1CCCN(S(=O)(=O)c2ccc(N3CCCCC3)cc2)C1 (centres unmarked) [#5] | 87.8 | 53.1 | 
O=C(CCc1ccccc1)NC1CCCN(S(=O)(=O)c2ccc(-n3cc(Br)cn3)cc2)C1 (centres unmarked) [#9] | 61.3 | 84.5 | 
COCCOc1ccc(S(=O)(=O)N2CCCC(NC(=O)CCc3ccccc3)C2)cc1 (centres unmarked) [#17] | 64.9 | 77.6 | 
CN(C)c1ccc(S(=O)(=O)N2CCCC(NC(=O)CCc3ccccc3)C2)cc1 (centres unmarked) [#14] | 72.7 | 70.9 | 
O=S(=O)(c1ccccc1)C1CN(S(=O)(=O)c2ccc(N3CCCCC3)cc2)C1 [#10] | 69.3 | 69.5 | 
CS(=O)(=O)c1ccc(N2CCCC(NC(=O)CCc3ccccc3)C2)cc1 (centres unmarked) [#1] | 61.3 | 71.9 | 
O=C(CCc1ccccc1)NC1CCCN(S(=O)(=O)Cc2ccc(Br)cc2)C1 (centres unmarked) [#8] | 94.6 | 50.9 | 
O=C(CCc1ccccc1)NC1CCCN(S(=O)(=O)c2ccc(F)cc2)C1 (centres unmarked) [#3] | 98 | 67 | 
CCCCNc1ccc(S(=O)(=O)N2CCCC(NC(=O)CCc3ccccc3)C2)cc1 (centres unmarked) [#15] | 80.4 | 63.8 | 

Continued, in another order:

remaining activity at 5 µM (P2X2R) [%] | remaining activity at 5 µM [1] [%] | Compound | Percentage of activity remains in the presence of the compound at 5 μM, P2X2R (Calcium Assay) (P2X2R) [%]
62.7 | 55.8 | O=C(CCc1ccccc1)NC1CCCN(S(=O)(=O)c2ccc(N3CCC(C(F)(F)F)CC3)cc2)C1 (centres unmarked) [#42] | 
67.2 | 84.3 | O=C(CCc1ccccc1)NC1CCCN(c2ccc(S(=O)(=O)Nc3ccccc3)cc2)C1 (centres unmarked) [#50] | 
85.8 | 42.1 | CC(C)(C)OC(=O)N1CCN(c2ccc(S(=O)(=O)N3CCC(C(=O)NCCc4ccccc4)CC3)cc2)CC1 [#22] | 
43.7 | 70.7 | O=C(CCc1ccccc1)N1CCN(S(=O)(=O)c2ccc(N3CCCC3)cc2)CC1 [#35] | 
73.5 | 68.1 | O=C(NCCc1ccccc1)C1CCCN(S(=O)(=O)c2ccc(N3CCOCC3)cc2)C1 (centres unmarked) [#24] | 
49.4 | 61.9 | O=C(CCc1ccccc1)NC1CCCN(S(=O)(=O)c2ccc(N3CCCCC3)c(Cl)c2)C1 (centres unmarked) [#45] | 
67.2 | 59.9 | CCCCNc1ccc(S(=O)(=O)N2CCC(C(=O)O)CC2)cc1 [#27] | 
78.3 | 81.8 | CC(C)(C)OC(=O)N1CCN(c2ccc(S(=O)(=O)N3CCN(C(=O)CCc4ccccc4)CC3)cc2)CC1 [#31] | 
59.4 | 63.3 | O=C(CCc1ccccc1)NC1CCCN(c2ccc(S(=O)(=O)N3CCCCC3)cc2)C1 (centres unmarked) [#54] | 
65.2 | 53.8 | O=C(CCc1ccccc1)N1CCN(S(=O)(=O)c2ccc(N3CCCCC3)cc2)CC1 [#34] | 
83.6 | 83.9 | O=C(CCc1ccccc1)N1CCN(S(=O)(=O)c2ccc(NC3CCCCC3)cc2)CC1 [#33] | 
49.4 | 72.2 | CC(C)(C)OC(=O)N1CCN(c2ccc(S(=O)(=O)N3CCCC(C(=O)NCCc4ccccc4)C3)cc2)CC1 (centres unmarked) [#36] | 
52.2 | 71.1 | O=C(CCc1ccccc1)NC1CCCN(S(=O)(=O)c2ccc(N3CCC(Oc4ccccc4)CC3)cc2)C1 (centres unmarked) [#38] | 
86.6 | 68.2 | CC(C)OC1CCN(c2ccc(S(=O)(=O)N3CCCC(NC(=O)CCc4ccccc4)C3)cc2)CC1 (centres unmarked) [#39] | 
90.3 | 54.8 | CCOc1ccc(S(=O)(=O)N2CCCC(NC(=O)CCc3ccccc3)C2)cc1 (centres unmarked) [#37] | 
58 | 49.7 | NS(=O)(=O)c1ccc(N2CCCC(NC(=O)CCc3ccccc3)C2)cc1 (centres unmarked) [#53] | 
56 | 48.4 | O=C(CCc1ccccc1)NC1CCCN(S(=O)(=O)c2ccc(F)c(Cl)c2)C1 (centres unmarked) [#43] | 
94.3 | 31 | O=C(NCCc1ccccc1)C1CCN(S(=O)(=O)c2ccc(N3CCCC3)cc2)CC1 [#21] | 
82.6 | 35.3 | CC(C)N(C(C)C)S(=O)(=O)c1ccc(N2CCCC(NC(=O)CCc3ccccc3)C2)cc1 (centres unmarked) [#49] | 
71 | 75 | O=C(CCc1ccccc1)NC1CCCN(S(=O)(=O)c2ccc(N3CCC(F)(F)CC3)cc2)C1 (centres unmarked) [#46] | 
67.5 | 76.8 | O=C(CCc1ccccc1)N1CCN(S(=O)(=O)c2ccc(F)cc2)CC1 [#30] | 
73.5 | 62.9 | CC1CCN(c2ccc(S(=O)(=O)N3CCCC(NC(=O)CCc4ccccc4)C3)cc2)CC1 (centres unmarked) [#40] | 
83 | 63.5 | CC1CCCN(c2ccc(S(=O)(=O)N3CCCC(NC(=O)CCc4ccccc4)C3)cc2)C1 (centres unmarked) [#44] | 
61.1 | 39.9 | CC(C)(C)OC(=O)N1CCC(C2CCN(c3ccc(S(=O)(=O)N4CCCC(NC(=O)CCc5ccccc5)C4)cc3)CC2)CC1 (centres unmarked) [#41] | 
83.3 | 67.1 | O=C(CCc1ccccc1)N1CCNCC1 [#29, hydrochloride] | 
